Biological target: HLA-A∗02:01 (Homo sapiens, UniProt P04439, D140Y/D185E/D98H/E176V/E277Q/G131W/G231S/I119V/I121R/I166T/I218V/L300P/L318F/N151K/N90K/P208A/P217A/Q86G/Q94H/R138H/R169H/T345S)
Type: binding
Conditions: n = 2

YM2SODGTM6SOSQV [M2SOM6SO]
IC50 compared with the native peptide: increased

From PMC10362274 (iScience, 2023)
